Data from PMC3242434 (Bioorganic & medicinal chemistry letters, 2011).

How the values were obtained:
[1] = test system: Hsp90; test: Western blot analyses of Hsp90 client protein degradation in MCF-7 cells; assay type: cell-based
[2] = test system: MCF7 breast cancer cell-line; test: Anti-proliferative activity against MCF7 breast cancer cell-line; assay type: cell-based; details: Homo sapiens, MCF7, read-out: IC50 against MCF-7

Structure (SMILES)	Hsp90 client protein degradation [1]	Hsp90 induction (heat shock response) [1]	IC50 [2] [µM]
COc1ccc(Cc2ccc3cc(NC(=O)c4ccc(OC(C)=O)c(CC=C(C)C)c4)c(=O)oc3c2C)cc1 [Compound 43]	client protein degradation was observed	no Hsp90 induction was seen	
COc1ccc(Oc2ccc3cc(NC(=O)c4ccc(O)c(CC=C(C)C)c4)c(=O)oc3c2C)cc1 [Compound 14]	client protein degradation was observed	no Hsp90 induction was seen	
COc1ccc(Cc2ccc3cc(NC(=O)c4ccc(O)c(CC=C(C)C)c4)c(=O)oc3c2C)cc1OC [Compound 48]			~13
